“Also recorded” adds a separate entry of the source.

The source of these data is patent publication US20260007636A1, “TREATING VASCULAR STENOSIS” (Mayo Foundation for Medical Education and Research, priority 2022, published 2026).

The test system of one experiment is Mcp-1. The experiment can be described thus: Mcp-1 gene expression in PMA treated THP-1 cells (qRT-PCR). It counts as cell-based, human. As for the experimental part: (§1) THP-1 (human leukemia monocyte cell line) cells were obtained from American Type Culture Collection (ATCC, Manassas, VA). THP-1 cells (200,000/well) were placed in six-well plates. After overnight incubation in serum free RPMI medium, cells were treated with 200 ng/ml of phorbol 12-myristate 13-acetate (PMA, Sigma-Aldrich, St. Louis, MO) to induce monocyte differentiation into macrophages. […] Cells were collected and RNA was isolated using miRNeasy kit (Qiagen).
(§2) PCR primers were purchased from Integrated DNA technologies (ITD, San Diego, USA). The miRNeasy Kit was used to isolate RNA (Qiagen, Germantown, MD, USA) according to the manufacturer's instructions. The iscript c-DNA synthesis kit (Bio-Rad, Hercules, CA, USA) was used to synthesize cDNA, and real-time qRT-PCR was done with the iTaq universal SYBR green super mix (Bio-Rad) using a C1000 thermal cycler with CFX96 real-time system (Bio-Rad). TBP-1 was used as a reference gene, and gene expression data was normalized to the respective control veins. The 2^−ΔΔct method was used to measure the fold change in gene expression.
(In general: Real-time PCR tracks product formation cycle by cycle.)

The subject of the next experiment is THP-1 cells. The experiment in a line: CCR2, FABP4, IL8 and PPARγ gene expression in PMA treated THP-1 cells (qRT-PCR). It counts as cell-based, human. The settings on record: 200 ng/ml PMA, 300 μM BN or BN NP, 24 hours. The protocol:
as §1, §2

On to `CCCCCCCCCCCCCC(=O)O[C@@H]1[C@@H](C)[C@@]2(O)[C@@H](C=C(CO)C[C@]3(O)C(=O)C(C)=C[C@@H]23)[C@@H]2C(C)(C)[C@]12OC(C)=O` [PMA, phorbol 12-myristate 13-acetate], for which, in the experiment with Mcp-1 (200 ng/ml PMA with or without 300 μM BN or BN NP, 24 hours, fold change), the “average Mcp-1 gene expression” value is 9.77±1.58. Further, the “average increase of Mcp-1 gene expression” value in the experiment on Mcp-1 (PMA compared to NP C alone) came to 859.13%. Moreover, in the experiment on THP-1 cells, the CCR2 gene expression entry is recorded as “significantly increased; also recorded: induced”, the FABP4 gene expression entry is recorded as “significantly increased; also recorded: induced”, the IL8 gene expression entry is on record as “significantly increased; also recorded: induced” and the PPARγ gene expression entry is “significantly increased; also recorded: induced”.
